For data set [1] the following is noted: dogs, reported by Pemberton et al, J Med Chem 2018; cited from earlier work.
The target of data set [2] is PI3Kδ (Homo sapiens, UniProt O00329). Description: ADP-Glo luminescent assay, enzymatic activity of PI3K delta. The data set is classed as biochemical. As to conditions: ATP 25 μM; read-out: PI3K delta (nM) inhibitory activity (IC50). The procedure: Enzymatic activity of PI3K isoforms: Enzymatic activity of the class I PI3K isoforms in the presence of the compounds of Table 1 was measured using ADP-Glo luminescent assay against PI3Kα, PI3Kβ, PI3Kδ and PI3Kγ with ATP concentration at 25 μM. […] The compounds would be tested from 1 or 10 μM, 3-fold dilution for 10 doses, in duplicate.
Sequence of PI3Kδ (O00329 whole entry, species assumed, canonical isoform): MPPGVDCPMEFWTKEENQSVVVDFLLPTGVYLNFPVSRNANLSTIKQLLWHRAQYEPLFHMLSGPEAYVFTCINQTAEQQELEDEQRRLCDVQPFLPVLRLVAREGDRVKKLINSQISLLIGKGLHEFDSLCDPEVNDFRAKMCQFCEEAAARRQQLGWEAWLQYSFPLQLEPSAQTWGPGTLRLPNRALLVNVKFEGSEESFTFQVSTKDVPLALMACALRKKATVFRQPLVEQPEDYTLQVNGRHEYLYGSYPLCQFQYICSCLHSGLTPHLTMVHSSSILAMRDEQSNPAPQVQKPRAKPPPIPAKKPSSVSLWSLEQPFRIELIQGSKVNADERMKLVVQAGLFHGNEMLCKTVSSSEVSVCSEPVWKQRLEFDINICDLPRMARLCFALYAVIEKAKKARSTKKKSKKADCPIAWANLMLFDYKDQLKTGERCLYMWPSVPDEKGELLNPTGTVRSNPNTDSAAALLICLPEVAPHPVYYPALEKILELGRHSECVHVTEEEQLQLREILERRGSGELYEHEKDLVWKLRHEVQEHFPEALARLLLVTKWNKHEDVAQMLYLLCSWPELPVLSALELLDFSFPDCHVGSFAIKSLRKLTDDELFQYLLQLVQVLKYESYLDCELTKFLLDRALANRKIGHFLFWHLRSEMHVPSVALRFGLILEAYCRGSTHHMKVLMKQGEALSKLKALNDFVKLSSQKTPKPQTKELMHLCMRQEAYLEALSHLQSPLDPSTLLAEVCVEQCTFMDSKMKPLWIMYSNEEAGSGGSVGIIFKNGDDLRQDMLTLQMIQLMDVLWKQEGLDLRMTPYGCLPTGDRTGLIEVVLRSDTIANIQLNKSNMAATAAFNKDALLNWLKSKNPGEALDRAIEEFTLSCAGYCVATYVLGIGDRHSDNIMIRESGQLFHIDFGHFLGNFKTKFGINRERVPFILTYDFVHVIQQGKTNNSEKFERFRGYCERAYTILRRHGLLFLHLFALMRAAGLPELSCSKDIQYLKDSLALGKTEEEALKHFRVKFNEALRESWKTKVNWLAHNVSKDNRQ
Sequence of PI3Kδ (P27986 whole entry partner, species assumed, canonical isoform): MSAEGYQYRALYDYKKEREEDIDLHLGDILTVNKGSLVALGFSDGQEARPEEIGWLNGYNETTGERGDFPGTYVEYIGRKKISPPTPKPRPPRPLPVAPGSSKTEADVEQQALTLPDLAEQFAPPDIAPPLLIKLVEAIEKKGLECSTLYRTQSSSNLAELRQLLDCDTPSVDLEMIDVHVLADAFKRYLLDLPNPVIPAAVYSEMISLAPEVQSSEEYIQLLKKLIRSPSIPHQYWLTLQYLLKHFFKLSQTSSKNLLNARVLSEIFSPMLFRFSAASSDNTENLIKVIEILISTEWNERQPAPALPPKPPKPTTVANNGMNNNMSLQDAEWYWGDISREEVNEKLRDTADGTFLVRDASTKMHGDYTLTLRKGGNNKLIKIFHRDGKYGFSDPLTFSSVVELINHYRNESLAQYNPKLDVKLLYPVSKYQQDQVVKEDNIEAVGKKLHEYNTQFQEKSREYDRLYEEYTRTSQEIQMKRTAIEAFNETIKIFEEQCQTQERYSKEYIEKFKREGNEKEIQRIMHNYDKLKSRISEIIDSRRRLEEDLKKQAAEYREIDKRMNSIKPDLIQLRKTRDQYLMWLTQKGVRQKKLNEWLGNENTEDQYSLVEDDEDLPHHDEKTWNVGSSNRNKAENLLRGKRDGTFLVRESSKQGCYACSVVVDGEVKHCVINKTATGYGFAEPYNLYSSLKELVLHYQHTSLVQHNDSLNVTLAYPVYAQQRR
(§1) Compound preparation: Dilute a compound to 100× of the final desired highest inhibitor concentration in reaction by 100% DMSO. Transfer 100 μl of this compound dilution to a well in a 96-well plate and serially dilute it with DMSO for a total of 10 concentrations.
(§2) Kinase reaction: Prepare a solution of PI3K in 1× kinase buffer at 2-fold the final concentration of each reagent in the assay. Control wells contain 1× kinase buffer without enzyme. Prepare substrate solution of PIP2 substrate and ATP in 1× kinase reaction buffer at 2-fold of the final concentration. Add concentration substrate solution to each well to the final concentration. Cover the assay plate, shake to mix, and incubate at room temperature for 1 hour. Add 5 μl of ADP-Glo reagent to each well to stop the reaction. Mix briefly with a quick spin, shake slowly on the shaker for 120 min. Add 10 ul Kinase Detection Reagent to each well, shake 1 min, equilibrate for 30 min before reading on a luminescence plate reader.
(§3) Data Analysis: Convert RLU values to percent inhibition values as Percent inhibition=(max−sample RLU)/(max−min)*100. “min”—no enzyme control; “max”—DMSO control. Fit the data in XLFit excel add-in version 5.4.0.8 to obtain IC50 values. Y=Bottom+(Top−Bottom)/(1+(IC50/X)^HillSlope).
A general note: In ADP-Glo the light output rises with the ADP produced.

For data set [3], the target named is PI3Kγ (Homo sapiens, UniProt P48736). The data set is described as follows: ADP-Glo luminescent assay, enzymatic activity of PI3K gamma. The data set is classed as biochemical. As to conditions: ATP 25 μM; read-out: PI3K gamma (nM) inhibitory activity (IC50).
Sequence of PI3Kγ (P48736 whole entry, species assumed): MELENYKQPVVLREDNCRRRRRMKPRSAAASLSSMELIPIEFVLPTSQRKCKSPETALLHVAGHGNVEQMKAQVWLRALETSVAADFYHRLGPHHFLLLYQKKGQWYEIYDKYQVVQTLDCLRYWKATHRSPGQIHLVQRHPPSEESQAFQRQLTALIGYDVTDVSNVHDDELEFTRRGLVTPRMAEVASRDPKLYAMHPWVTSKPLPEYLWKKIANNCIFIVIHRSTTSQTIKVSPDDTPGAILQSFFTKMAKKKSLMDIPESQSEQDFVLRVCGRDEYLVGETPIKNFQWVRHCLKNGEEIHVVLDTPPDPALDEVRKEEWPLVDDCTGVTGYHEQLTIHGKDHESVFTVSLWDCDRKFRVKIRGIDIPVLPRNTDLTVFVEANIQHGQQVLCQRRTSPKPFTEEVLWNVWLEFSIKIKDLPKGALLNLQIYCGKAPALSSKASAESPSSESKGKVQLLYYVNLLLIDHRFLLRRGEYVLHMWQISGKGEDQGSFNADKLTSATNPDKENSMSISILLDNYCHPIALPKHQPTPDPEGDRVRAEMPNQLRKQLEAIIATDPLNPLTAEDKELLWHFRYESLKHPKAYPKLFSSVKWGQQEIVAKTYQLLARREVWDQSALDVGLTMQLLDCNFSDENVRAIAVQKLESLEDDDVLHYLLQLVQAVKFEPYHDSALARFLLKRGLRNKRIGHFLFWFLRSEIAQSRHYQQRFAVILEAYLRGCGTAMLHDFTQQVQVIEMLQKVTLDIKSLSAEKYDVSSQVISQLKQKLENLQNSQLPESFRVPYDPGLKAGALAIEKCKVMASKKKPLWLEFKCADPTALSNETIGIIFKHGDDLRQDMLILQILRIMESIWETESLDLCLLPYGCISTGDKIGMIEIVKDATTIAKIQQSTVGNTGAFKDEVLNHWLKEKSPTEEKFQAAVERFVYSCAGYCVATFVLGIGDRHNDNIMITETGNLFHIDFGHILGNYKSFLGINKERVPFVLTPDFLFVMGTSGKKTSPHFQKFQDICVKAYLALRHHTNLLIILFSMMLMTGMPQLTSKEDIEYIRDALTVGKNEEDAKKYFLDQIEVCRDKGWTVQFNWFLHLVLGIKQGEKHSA
Data set [4] has as its target PI3Kα (Homo sapiens, UniProt P42336). Description: ADP-Glo luminescent assay, enzymatic activity of PI3K alpha. The data set is classed as biochemical. As to conditions: ATP 25 μM; read-out: PI3K alpha (nM) inhibitory activity (IC50). The procedure:
(§4) Enzymatic activity of PI3K isoforms: Enzymatic activity of the class I PI3K isoforms in the presence of the compounds of Table 1 was measured using ADP-Glo luminescent assay against PI3Kα, PI3Kβ, PI3Kδ and PI3Kγ with ATP concentration at 25 μM. IPI-549 was used as the reference compound. The compounds would be tested from 1 or 10 μM, 3-fold dilution for 10 doses, in duplicate.
as §1, §2, §3

Data set [5] addresses T1, PI3K gamma (Mus musculus, UniProt Q9JHG7).
T1 construct: endogenous in cells; host or cells: RAW264.7
Description: Raw264.7 cell assay: phosphorylation of AKT in C5a stimulated RAW264.7 cells (AlphaLISA). The data set is classed as cell-based. As to conditions: pAKT, read-out: PI3K gamma Raw264.7 cell (nM) cellular activity (IC50). Summed up:
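Passage-15 RAW264.7 cells were plated and rested 2 h at 37 °C, then given compound for 30 min at 37 °C before C5a stimulation. Lysates went to phospho-AKT AlphaLISA with a 2 h dark incubation at 25 °C. IC50 came from a four-parameter logistic fit of inhibition against log concentration.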

In data set [6] the target is PI3Kβ (Homo sapiens, UniProt P42338). Description: ADP-Glo luminescent assay, enzymatic activity of PI3K beta. The data set is classed as biochemical. As to conditions: ATP 25 μM; read-out: PI3K beta (nM) inhibitory activity (IC50). As to the method:
as §4, §1, §2, §3

The nature of data set [7]: Kinetic solubility test in PBS pH7.4. The data set is classed as physicochemical. As to conditions: aqueous buffer, kinetic from dmso stock; PBS pH 7.4, 25° C., 2 hours. As to the method:
15 μL of stock solution (10 mM) was placed in order into their proper 96-well rack. 485 μL of PBS pH7.4 was added into each vial of the cap-less Solubility Sample plate. The assay was performed in singlet. Add one stir stick to each vial and seal using a molded PTFE/Silicone plug. […] After completion of the 2 hours, the samples from the Solubility Sample plate were transferred into the filter plate. all the samples were filtered using the Vacuum Manifold. Aliquot of 5 μL was taken from the filtrate followed by addition of 495 μL of a mixture of H2O and acetonitrile containing internal standard (1:1). A certain proportion of ultrapure water was used to dilute the diluent according to the peak shape. The dilution factor was changed according to the solubility values and the LC-MS signal response.
Preparation of 3 μM standards (STD): From the 10 mM DMSO STD plate, 6 μL was transferred into the remaining empty plate, and then 194 μL of DMSO was added to that plate to have a STD concentration of 300 μM. From the 300 μM DMSO STD plate, 5 μL was transferred into the remaining empty plate, and then 495 μL of a mixture of H2O and acetonitrile containing internal standard (1:1) was added to that plate to have a final STD concentration of 3 μM. A certain proportion of ultrapure water was used to dilute the diluent according to the peak shape. The concentrations of the standard samples were changed according to the LC-MS signal response.
Procedure for sample analysis: The plate was placed into the well plate autosampler. The samples were evaluated by LC-MS/MS analysis.
Data analysis: All calculations were carried out using Microsoft Excel.
The filtrate was analyzed and quantified against a standard of known concentration using LC coupled with mass spectral peak identification and quantitation. Solubility values of the test compound and control compound were calculated as follows:
[formula] • Any value of the compounds that was not within the specified limits was rejected and the experiment was repeated.

Data set [8] concerns the target T2, PI3K delta (Homo sapiens, UniProt O00329).
T2 construct: endogenous in cells; host or cells: Raji
The data set is described as follows: Raji cell assay: phosphorylation of AKT in anti-IgM stimulated Raji cells (AlphaLISA). As to conditions: pAKT, read-out: PI3K delta Raji cell (nM) cellular activity (IC50). The data set is classed as cell-based. The procedure:
This study aims to determine the inhibitory effect of compounds on PI3K gamma and PI3K delta in corresponding cell based assays. PI3K gamma activity was reflected by phosphorylation of AKT in C5a stimulated RAW264.7 cells, and PI3K delta activity was reflected by phosphorylation of AKT in anti-IgM stimulated Raji cells. Phosphorylation of AKT in cells was determined using AlphaLISA technology from PerkinElmer.
Raji cell assay: Prepare Passage 11 Raji cell and add 6 μL of 60K cells per well in 384-well plate. Centrifuge at 500 RPM for 30 s and incubate for 2 hours at 37° C., 5% CO2. Add 30 nL compound by Echo and incubate for 30 min at 37° C. Add 2 μL of IgM (4×, 12 μg/mL) per well, centrifuge at 500 RPM for 30 s and incubate for 10 min at 37° C. Add 2 μL of 5× lysis buffer by Multidrop. Shake 10 min on a plate shaker. Add 5 μL acceptor mix provided in the kit. Centrifuge at 1000 RPM for 1 min. Add 5 μL donor mix provided in the kit. Centrifuge at 1000 RPM for 1 min. Then incubate for 2 hours at 25° C., keep the plate in dark. Read AlphaLISA signal on Envision.
Data analysis: Fit the cpd IC50 from non-linear regression equation. Y=Bottom+(Top−Bottom)/(1+10^((Log IC50−X)*Hill Slope)) X: Log of cpd concentration Y: Inhibition
(Bead proximity is the source of the signal in Alpha formats.)

Values after ≈ are worked out from the molar mass of the structure shown.

In general, solubility refers to how much of the substance goes into solution per volume. A higher solubility goes with a readily soluble substance.

Sequence of PI3Kβ (P42338 whole entry, species assumed): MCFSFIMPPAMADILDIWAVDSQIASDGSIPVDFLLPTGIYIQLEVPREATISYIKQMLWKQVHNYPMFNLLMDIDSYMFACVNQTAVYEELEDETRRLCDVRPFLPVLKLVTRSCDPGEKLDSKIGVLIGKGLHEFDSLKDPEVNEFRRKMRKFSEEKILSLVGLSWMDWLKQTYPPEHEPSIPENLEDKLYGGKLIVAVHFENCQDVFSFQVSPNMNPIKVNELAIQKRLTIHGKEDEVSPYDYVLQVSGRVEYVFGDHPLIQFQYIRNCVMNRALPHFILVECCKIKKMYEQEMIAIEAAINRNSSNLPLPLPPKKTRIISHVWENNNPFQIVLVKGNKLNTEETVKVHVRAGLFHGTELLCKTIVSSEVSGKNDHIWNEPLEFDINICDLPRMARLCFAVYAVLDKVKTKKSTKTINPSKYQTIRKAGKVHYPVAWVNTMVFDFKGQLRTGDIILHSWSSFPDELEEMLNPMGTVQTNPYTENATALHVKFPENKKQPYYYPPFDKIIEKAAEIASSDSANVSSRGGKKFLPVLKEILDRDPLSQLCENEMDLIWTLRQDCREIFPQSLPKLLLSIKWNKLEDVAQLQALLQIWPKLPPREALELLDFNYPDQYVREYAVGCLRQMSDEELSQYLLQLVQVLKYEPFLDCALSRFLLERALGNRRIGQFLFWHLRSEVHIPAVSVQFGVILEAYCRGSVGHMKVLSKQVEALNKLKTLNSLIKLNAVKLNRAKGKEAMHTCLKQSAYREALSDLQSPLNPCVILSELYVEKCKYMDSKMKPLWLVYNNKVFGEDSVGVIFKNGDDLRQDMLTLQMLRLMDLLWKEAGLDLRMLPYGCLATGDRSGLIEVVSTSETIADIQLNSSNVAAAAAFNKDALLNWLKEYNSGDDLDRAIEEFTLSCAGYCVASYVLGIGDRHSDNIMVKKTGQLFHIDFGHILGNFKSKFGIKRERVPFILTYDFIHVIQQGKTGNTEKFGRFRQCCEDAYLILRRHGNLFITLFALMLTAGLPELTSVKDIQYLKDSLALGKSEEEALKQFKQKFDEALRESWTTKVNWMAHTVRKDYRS
Sequence of PI3Kβ (P27986 whole entry partner, species assumed): as the sequence (P27986 whole entry partner, species assumed, canonical isoform) above
Sequence of PI3Kα (P42336 whole entry, species assumed, canonical isoform): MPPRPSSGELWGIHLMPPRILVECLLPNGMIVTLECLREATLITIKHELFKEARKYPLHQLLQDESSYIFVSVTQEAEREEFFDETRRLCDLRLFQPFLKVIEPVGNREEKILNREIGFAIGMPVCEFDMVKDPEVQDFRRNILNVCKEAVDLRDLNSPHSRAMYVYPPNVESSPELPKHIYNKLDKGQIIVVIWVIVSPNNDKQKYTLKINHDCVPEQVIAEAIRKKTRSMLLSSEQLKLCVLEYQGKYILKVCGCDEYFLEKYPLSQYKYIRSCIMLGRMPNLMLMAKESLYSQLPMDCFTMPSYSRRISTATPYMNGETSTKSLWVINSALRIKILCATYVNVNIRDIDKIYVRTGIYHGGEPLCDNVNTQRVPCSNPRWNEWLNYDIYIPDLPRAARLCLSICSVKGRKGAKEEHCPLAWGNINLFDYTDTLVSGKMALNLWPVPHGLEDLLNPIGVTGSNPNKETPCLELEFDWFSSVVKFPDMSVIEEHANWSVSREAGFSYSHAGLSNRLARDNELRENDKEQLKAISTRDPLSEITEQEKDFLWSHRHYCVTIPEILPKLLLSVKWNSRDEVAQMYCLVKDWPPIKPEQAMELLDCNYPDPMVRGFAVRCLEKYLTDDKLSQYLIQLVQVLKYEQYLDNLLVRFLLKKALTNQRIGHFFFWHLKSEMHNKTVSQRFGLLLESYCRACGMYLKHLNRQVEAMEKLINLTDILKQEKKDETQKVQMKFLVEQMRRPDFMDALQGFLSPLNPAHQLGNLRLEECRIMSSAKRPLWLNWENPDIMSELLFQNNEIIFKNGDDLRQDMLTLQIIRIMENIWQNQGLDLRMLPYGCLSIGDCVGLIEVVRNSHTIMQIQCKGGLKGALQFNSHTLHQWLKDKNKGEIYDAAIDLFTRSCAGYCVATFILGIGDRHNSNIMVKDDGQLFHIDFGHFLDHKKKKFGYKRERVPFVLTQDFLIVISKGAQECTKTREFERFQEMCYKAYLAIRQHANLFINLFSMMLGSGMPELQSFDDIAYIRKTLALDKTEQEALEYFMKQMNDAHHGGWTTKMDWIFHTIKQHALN
Sequence of PI3Kα (P27986 whole entry partner, species assumed, canonical isoform): as the sequence (P27986 whole entry partner, species assumed, canonical isoform) above

`CC(=O)Nc1nc(C)c(-c2cc3c(c(NS(C)(=O)=O)c2)C(=O)N([C@@H](C)C2CC2)C3)s1` [AZ-17]: the “Vssobs” value in data set [1] is 0.7 L/kg.

Regarding `CC(=O)Nc1nc(C)c(-c2cc3c(c(N4CCS(=O)(=O)CC4)n2)C(=O)N([C@@H](C)C2CC2)C3)s1` [Compound 38, (S)-N-(5-(2-(1-cyclopropylethyl)-4-(1,1-dioxidothiomorpholino)-3-oxo-2,3-dihydro-M-pyrrolo[3,4-c]pyridin-6-yl)-4-methylthiazol-2-yl)acetamide], the IC50 is 1550 nM in data set [2]; 1.9 nM in data set [3]; 8420 nM in data set [4]; 9.3 nM in data set [5]; above 10000 nM in data set [6]. For the same compound, the concentration in solution in data set [7] (solubility at 2 h) came to 2.3 µM (≈ 1.13 µg/mL).

As for `CCS(=O)(=O)Nc1nc(-c2sc(NC(C)=O)nc2C)cc2c1C(=O)N([C@@H](C)C1CC1)C2` [Compound 23, (S)-N-(5-(2-(1-cyclopropylethyl)-4-(ethylsulfonamido)-3-oxo-2,3-dihydro-1H-pyrrolo[3,4-c]pyridin-6-yl)-4-methylthiazol-2-yl)acetamide], the IC50 was 1210 nM in data set [2]; 1 nM in data set [3]; 3330 nM in data set [4]; 2 nM in data set [5]; above 10000 nM in data set [6]; 1510 nM in data set [8]. The same compound had a solubility at 2 h in data set [7] of 202 µM (≈ 93.6 µg/mL).

The values above are taken from US11542262B2, “Phosphatidylinositol 3-kinase inhibitors” (NANJING ZHENGXIANG PHARMACEUTICALS CO., LTD., priority 2019, dated 2023).
